Assay results reported in patent publication US20210322386A1, “METHODS OF DELAYING AND REVERSING ALZHEIMER'S DISEASE PROGRESSION” (Loma Linda University, priority 2018, published 2021).
Entries after “also recorded” stand apart in the source; their conditions may differ. Where two headings read alike, the source gives them in different places.

What was measured:
[1] = target: T1, CYP27A1 enzyme (Homo sapiens, UniProt Q02318); conditions: from Mast et al., Mol. Pharmacol., 2015, cited from earlier work
T1 sequence (Q02318 34-531): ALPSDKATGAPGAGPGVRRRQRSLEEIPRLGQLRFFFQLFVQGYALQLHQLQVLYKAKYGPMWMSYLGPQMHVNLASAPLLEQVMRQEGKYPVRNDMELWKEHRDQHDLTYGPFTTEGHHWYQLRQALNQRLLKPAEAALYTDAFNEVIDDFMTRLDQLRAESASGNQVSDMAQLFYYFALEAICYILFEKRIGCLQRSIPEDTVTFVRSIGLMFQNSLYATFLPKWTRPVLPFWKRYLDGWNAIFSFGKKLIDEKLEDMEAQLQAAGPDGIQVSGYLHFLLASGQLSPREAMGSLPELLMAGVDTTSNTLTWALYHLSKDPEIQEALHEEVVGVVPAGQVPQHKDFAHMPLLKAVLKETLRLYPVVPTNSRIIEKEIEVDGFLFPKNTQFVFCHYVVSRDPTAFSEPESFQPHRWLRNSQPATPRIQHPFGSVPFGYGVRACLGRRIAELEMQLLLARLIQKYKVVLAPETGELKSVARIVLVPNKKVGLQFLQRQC

[2] = tested on: mice fed a high-cholesterol diet; test: Y-maze test of cognitive function in mice fed a high-cholesterol diet; format: in vivo; conditions: mice on high-cholesterol diet (standard chow containing 0.5% cholesterol), 8 weeks of treatment, about 0.4 mg anastrozole/animal/day in LabGel
Description: A pilot study was carried out to assess the safety profile and cognitive impact of anastrozole in 12-week old male mice. Mice were fed anastrozole or placebo (vehicle alone) for a period of 8 weeks using a hydrogel as the means of administration (n=6 per group). Because of the poor palatability of anastrozole in its available form, it was administered through a hydration gel especially designed for medication delivery (LabGel-ClearH20 catalog # 71-02-1081; Portland, Me.), LabGel consists of purified water, sucralose, fruit and natural flavoring, hydrocolloids, potassium sorbate, sodium benzoate, and phosphoric acid. […] Mice were monitored for health decline signs, and given an Appearance Score (Normal skin; skin tent on dorsum; hunched posture; eyes sunken in and severe skin tent; and failure to right self) and an Attitude Score (Normal; decreased activity; lethargy; non-responsiveness; and failure to flee when hand present in cage), as described (Bekkevold et al., J Am Assoc Lab Anim Sci, 52: 233-9, 2013).
12-week old male mice on either a normal or high-cholesterol diet were tested on the same day with an interval of 2 hours between the training 15 min) and testing (5 min) phases. Data were analyzed by one-way ANOVA and Bonferroni post-hoc test. […]

[3] = tested on: 12-week old male mice; test: Pilot study of safety profile of anastrozole in mice (Appearance/Attitude Scores, weight gain, postmortem organs); format: in vivo
Description: A pilot study was carried out to assess the safety profile and cognitive impact of anastrozole in 12-week old male mice. Mice were fed anastrozole or placebo (vehicle alone) for a period of 8 weeks using a hydrogel as the means of administration (n=6 per group). Because of the poor palatability of anastrozole in its available form, it was administered through a hydration gel especially designed for medication delivery (LabGel-ClearH20 catalog # 71-02-1081; Portland, Me.), LabGel consists of purified water, sucralose, fruit and natural flavoring, hydrocolloids, potassium sorbate, sodium benzoate, and phosphoric acid. For each 236 mL dose of LabGel, 45 mg of anastrozole powder, 40 μL of red food coloring, and 1 mL of propylene glycol are thoroughly mixed and the resulting anastrozole is distributed into mouse cages at 3 grams LabGel/mouse/day in a custom--made container easily accessible to the mice. The final concentration of anastrozole in the LabGel is 0.1906 mg/mL and it is kept fresh by replacing it every 48 hours. In the experiment, mice consumed about 2 mL/mouse/day of LabGel equating to about 0.4 mg anastrozole/animal/day, which is consistent with the literature (Overk et al., J Neurosci Methods, 195: 194-9, 2011). Mice were monitored for health decline signs, and given an Appearance Score (Normal skin; skin tent on dorsum; hunched posture; eyes sunken in and severe skin tent; and failure to right self) and an Attitude Score (Normal; decreased activity; lethargy; non-responsiveness; and failure to flee when hand present in cage), as described (Bekkevold et al., J Am Assoc Lab Anim Sci, 52: 233-9, 2013).

Row | Compound | inhibition of the CYP27A1 enzyme [1] | also measured
1 | CC[C@@H]([C@H](C)O)n1ncn(-c2ccc(N3CCN(c4ccc(OC[C@@H]5CO[C@@](Cn6cncn6)(c6ccc(F)cc6F)C5)cc4)CC3)cc2)c1=O [posaconazole] | Inhibitors of the CYP27A1 enzyme | –
2 | CC(C)(C#N)c1cc(Cn2cncn2)cc(C(C)(C)C#N)c1 [anastrozole] | Inhibitors of the CYP27A1 enzyme | cognitive function as measured by Y-maze test [2]: protects against cognitive loss; also recorded: ameliorates the negative effect of a high-cholesterol diet on cognitive function; inhibition of the CYP27A1 enzyme ([1]; listed as Anastrozole): shown to inhibit the CYP27A1 enzyme; signs of health decline (Appearance Score and Attitude Score) ([3]; 8 weeks, about 0.4 mg anastrozole/animal/day in LabGel): No signs of health decline; postmortem evaluation of major organs ([3]; after 8 weeks): no signs of toxicity; weight gain progression vs vehicle group ([3]; throughout the 8-week study): identical between both groups
3 | N#Cc1ccc(C2CCCc3cncn32)cc1 (stereo not shown) [fadrozole] | Inhibitors of the CYP27A1 enzyme | –
4 | C[C@@H](c1nc(-c2ccc(C#N)cc2)cs1)[C@](O)(Cn1cncn1)c1ccc(F)cc1F [ravuconazole] | Inhibitors of the CYP27A1 enzyme | –
5 | Cc1cccc([C@H](C)c2cnc[nH]2)c1C [dexmedetomidine] | Inhibitors of the CYP27A1 enzyme | –
